The values below come from ChEMBL document CHEMBL4373722, “Selective, Small-Molecule Co-Factor Binding Site Inhibition of a Su(var)3-9, Enhancer of Zeste, Trithorax Domain Containing Lysine Methyltransferase” (J Med Chem, 2019).

The source made the active and inactive calls. The calls are words filed in the database; no cut-off is given here.

The target of series [1] is T1, N-lysine methyltransferase SMYD2 (Homo sapiens, UniProt Q9NRG4). Put plainly: Inhibition of recombinant human SMYD2 (1 to 433 residues) expressed in baculovirus infected Sf9 insect cells using biotinylated-p53 peptide (361 to 380 residues) as substrate measured after 120 mins in presence of 20 uM [3H]-SAM by scintillation proximity assay. On the technique in general: Scintillation proximity formats need no separation of bound from free tracer.
T1 sequence (Q9NRG4 whole entry, the tested form may be a part): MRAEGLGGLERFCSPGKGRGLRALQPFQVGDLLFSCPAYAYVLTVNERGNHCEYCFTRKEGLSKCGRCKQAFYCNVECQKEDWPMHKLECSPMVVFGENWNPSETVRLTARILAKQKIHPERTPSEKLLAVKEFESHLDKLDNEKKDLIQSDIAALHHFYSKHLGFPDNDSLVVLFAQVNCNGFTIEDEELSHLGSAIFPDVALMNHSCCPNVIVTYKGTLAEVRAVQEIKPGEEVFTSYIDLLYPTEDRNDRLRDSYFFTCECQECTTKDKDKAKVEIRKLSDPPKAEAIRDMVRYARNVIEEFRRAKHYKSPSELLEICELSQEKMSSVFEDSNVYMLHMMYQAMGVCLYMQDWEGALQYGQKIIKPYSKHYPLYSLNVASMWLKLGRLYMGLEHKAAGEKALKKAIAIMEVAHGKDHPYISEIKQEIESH

Series [2] concerns the target T1, N-lysine methyltransferase SMYD2. Put plainly: Inhibition of recombinant human SMYD2 (1 to 433 residues) expressed in baculovirus infected Sf9 insect cells using biotinylated-p53 peptide (361 to 380 residues) as substrate measured after 50 mins in presence of 70 nM [3H]-SAM by scintillation proximity assay.
In series [3] the test system is MCF7. Description: Effect on total p53 level in human MCF7 cells co-transfected with V5-tagged SMYD2/FLAG-tagged p53 up to 30 uM measured after 20 hrs by immunoblot analysis. It counts as ADME, cell-based. Conditions: mcf7, 20 h. In general terms: In western blotting, separated proteins are transferred to a membrane and probed.
Series [4] concerns the target T1, N-lysine methyltransferase SMYD2. Description: Inhibition of V5-tagged SMYD2 (unknown origin) transfected in human MCF7 cells co-transfected with FLAG-tagged p53 assessed as reduction in p53 methylation at K370 residue at 30 uM measured after 20 hrs by immunoblot analysis. The class given is cell-based.
The target is the same in series [5]. Description: Inhibition of V5-tagged SMYD2 (unknown origin) transfected in human MCF7 cells co-transfected with FLAG-tagged p53 assessed as reduction in p53 methylation at K370 residue at 10 to 30 uM measured after 20 hrs by immunoblot analysis. The class given is cell-based.
Series [6] has as its target Histone-lysine N-methyltransferase KMT5C (Homo sapiens) (UniProt Q86Y97). Description: Inhibition of SUV420H2 (unknown origin) at 1 uM using biotin-labeled peptide as substrate and [3H]-SAM measured after 1 hr by scintillation proximity assay.
A short description of series [7]: Lipophilicity, log D of the compound. It counts as physicochemical. As to conditions: octanol/water.
Series [8] addresses T1, N-lysine methyltransferase SMYD2. Put plainly: Inhibition of V5-tagged SMYD2 (unknown origin) transfected in human CAL120 cells co-transfected with FLAG-tagged p53 assessed as reduction in p53 methylation at K370 residue measured after 20 hrs by immunoblot analysis. It counts as cell-based.
Series [9] has the same target. Put plainly: Competitive inhibition of recombinant human SMYD2 (1 to 433 residues) expressed in baculovirus infected Sf9 insect cells using biotinylated-p53 peptide (361 to 380 residues) as substrate measured after 50 mins in presence of varying levels of [3H]-SAM by scintillation proximity assay.
The target is the same in series [10]. Description: Inhibition of V5-tagged SMYD2 (unknown origin) transfected in human MDA-MB-231 cells co-transfected with FLAG-tagged p53 assessed as reduction in p53 methylation at K370 residue measured after 20 hrs by immunoblot analysis. The class given is cell-based.
Series [11] is filed under the species Homo sapiens. Description: Selectivity ratio of IC50 for SUV420H1 in human MCF7 cells to IC50 for V5-tagged SMYD2 (unknown origin) transfected in human MCF7 cells co-transfected with FLAG-tagged p53. The class given is cell-based.
The species entered for series [12] is Homo sapiens. Description: Selectivity ratio of IC50 for SUV420H1 (unknown origin) to IC50 for recombinant human SMYD2 (1 to 433 residues) expressed in baculovirus infected Sf9 insect cells at 40 uM using biotinylated-p53 peptide (361 to 380 residues) as substrate measured after 50 mins in presence of 70 nM [3H]-SAM.
For series [13], the target named is Histone-lysine N-methyltransferase KMT5B (Homo sapiens) (UniProt Q4FZB7). Description: Inhibition of SUV420H1 (unknown origin) at 1 uM using biotin-labeled peptide as substrate and [3H]-SAM measured after 1 hr by scintillation proximity assay.
Histone-lysine N-methyltransferase KMT5B (Homo sapiens), sequence (Q4FZB7 whole entry, looked up): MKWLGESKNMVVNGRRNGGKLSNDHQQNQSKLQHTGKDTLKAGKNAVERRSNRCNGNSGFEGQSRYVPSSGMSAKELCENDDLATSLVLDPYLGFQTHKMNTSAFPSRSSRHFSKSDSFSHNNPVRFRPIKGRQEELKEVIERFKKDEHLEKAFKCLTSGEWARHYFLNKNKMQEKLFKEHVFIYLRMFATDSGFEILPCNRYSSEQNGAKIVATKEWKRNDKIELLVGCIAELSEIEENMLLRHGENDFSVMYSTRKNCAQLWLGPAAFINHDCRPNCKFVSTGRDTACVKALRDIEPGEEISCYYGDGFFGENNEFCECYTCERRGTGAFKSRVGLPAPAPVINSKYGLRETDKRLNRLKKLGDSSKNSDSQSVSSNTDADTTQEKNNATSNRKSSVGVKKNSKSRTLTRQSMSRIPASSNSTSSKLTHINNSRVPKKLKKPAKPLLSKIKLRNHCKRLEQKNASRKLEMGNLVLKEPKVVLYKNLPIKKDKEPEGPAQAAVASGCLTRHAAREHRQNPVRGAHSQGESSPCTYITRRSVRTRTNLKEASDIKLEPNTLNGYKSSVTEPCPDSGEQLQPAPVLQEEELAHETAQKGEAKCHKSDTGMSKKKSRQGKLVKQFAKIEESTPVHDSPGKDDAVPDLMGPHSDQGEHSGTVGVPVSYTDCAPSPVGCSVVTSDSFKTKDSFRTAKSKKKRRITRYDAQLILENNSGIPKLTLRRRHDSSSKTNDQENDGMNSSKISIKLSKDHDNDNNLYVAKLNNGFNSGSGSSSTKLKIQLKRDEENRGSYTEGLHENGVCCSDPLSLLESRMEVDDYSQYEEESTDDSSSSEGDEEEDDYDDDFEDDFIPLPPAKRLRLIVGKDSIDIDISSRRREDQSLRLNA
For series [14], the target named is T1, N-lysine methyltransferase SMYD2. Put plainly: Inhibition of V5-tagged SMYD2 (unknown origin) transfected in human MCF7 cells co-transfected with FLAG-tagged p53 assessed as reduction in p53 methylation at K370 residue at 10 uM measured after 20 hrs by immunoblot analysis relative to control. The class given is cell-based.
The target of series [15] is Histone-lysine N-methyltransferase KMT5B (Homo sapiens) (UniProt Q4FZB7). Description: Inhibition of SUV420H1 in human MCF7 cells assessed as decrease in H4K20me3 level up to 50 uM measured after 2 days by immunoblot analysis. The class given is cell-based.
Series [16] concerns the target T1, N-lysine methyltransferase SMYD2. Description: Inhibition of V5-tagged SMYD2 (unknown origin) transfected in human U2OS cells co-transfected with FLAG-tagged p53 assessed as reduction in p53 methylation at K370 residue measured after 20 hrs by immunoblot analysis. The class given is cell-based.
For series [17], the target named is Histone-lysine N-methyltransferase KMT5C (Homo sapiens) (UniProt Q86Y97). Put plainly: Inhibition of SUV420H2 in human MCF7 cells assessed as decrease in H4K20me3 level up to 50 uM measured after 2 days by immunoblot analysis. It counts as cell-based.
Histone-lysine N-methyltransferase KMT5C (Homo sapiens), sequence (Q86Y97 whole entry, looked up, the tested form may be a part): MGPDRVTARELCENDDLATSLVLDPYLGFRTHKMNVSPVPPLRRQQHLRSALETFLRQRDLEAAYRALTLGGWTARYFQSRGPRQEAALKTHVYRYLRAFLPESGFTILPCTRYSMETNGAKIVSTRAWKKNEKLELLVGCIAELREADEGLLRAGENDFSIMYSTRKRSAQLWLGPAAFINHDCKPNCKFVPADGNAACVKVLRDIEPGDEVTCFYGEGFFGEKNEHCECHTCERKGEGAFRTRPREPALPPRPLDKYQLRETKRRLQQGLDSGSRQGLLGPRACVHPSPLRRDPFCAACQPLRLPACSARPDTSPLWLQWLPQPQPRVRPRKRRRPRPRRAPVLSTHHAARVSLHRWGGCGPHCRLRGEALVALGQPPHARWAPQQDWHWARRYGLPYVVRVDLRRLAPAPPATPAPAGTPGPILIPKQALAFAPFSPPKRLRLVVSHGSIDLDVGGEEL
Series [18] concerns the target T1, N-lysine methyltransferase SMYD2. Description: Mixed inhibition of recombinant human SMYD2 (1 to 433 residues) expressed in baculovirus infected Sf9 insect cells using varying levels of biotinylated-p53 peptide (361 to 380 residues) as substrate measured after 50 mins in presence of 2 uM [3H]-SAM by scintillation proximity assay.
Series [19] shares this target. Description: Inhibition of V5-tagged SMYD2 (unknown origin) transfected in human HeLa cells co-transfected with FLAG-tagged p53 assessed as reduction in p53 methylation at K370 residue measured after 20 hrs by immunoblot analysis. The class given is cell-based.
Series [20] is filed under the species Homo sapiens. Description: Selectivity ratio of IC50 for SUV420H2 (unknown origin) to IC50 for recombinant human SMYD2 (1 to 433 residues) expressed in baculovirus infected Sf9 insect cells at 40 uM using biotinylated-p53 peptide (361 to 380 residues) as substrate measured after 50 mins in presence of 70 nM [3H]-SAM.
For series [21], the target named is T1, N-lysine methyltransferase SMYD2. Put plainly: Inhibition of V5-tagged SMYD2 (unknown origin) transfected in human MCF7 cells co-transfected with FLAG-tagged p53 assessed as reduction in p53 methylation at K370 residue measured after 20 hrs by immunoblot analysis. The class given is cell-based.
The species named for series [22] is Homo sapiens. Put plainly: Selectivity ratio of IC50 for SUV420H2 in human MCF7 cells to IC50 for V5-tagged SMYD2 (unknown origin) transfected in human MCF7 cells co-transfected with FLAG-tagged p53. The class given is cell-based.
For series [23], the system named is MCF7. Put plainly: Cytotoxicity against human MCF7 cells up to 10 uM measured after 5 days by IncuCyte zoom live cell analysis. The class given is cell-based. Conditions: mcf7, 120 h.
The nature of series [24]: Cytotoxicity against human TERA2D cells up to 10 uM measured after 5 days by IncuCyte zoom live cell analysis. The class given is cell-based. As to conditions: 120 h.
For the next series, the system named is U2OS. Put plainly: Cytotoxicity against human U2OS cells up to 10 uM measured after 5 days by IncuCyte zoom live cell analysis. Conditions: 120 h. The class given is cell-based.
For series [25], the target named is T1, N-lysine methyltransferase SMYD2. Description: Inhibition of V5-tagged SMYD2 (unknown origin) transfected in HEK293 cells co-transfected with FLAG-tagged p53 assessed as reduction in p53 methylation at K370 residue measured after 20 hrs by immunoblot analysis. It counts as cell-based.
Series [26] shares this target. Description: Inhibition of recombinant human SMYD2 (1 to 433 residues) expressed in baculovirus infected Sf9 insect cells at 40 uM using biotinylated-p53 peptide (361 to 380 residues) as substrate measured after 50 mins in presence of 70 nM [3H]-SAM by scintillation proximity assay relative to control.
Series [27] shares this target. Conditions: MCF7, 1 uM.
Description: Inhibition of V5-tagged SMYD2 (unknown origin) transfected in human MCF7 cells co-transfected with FLAG-tagged p53 assessed as reduction in p53 methylation at K370 residue at 1 uM measured after 20 hrs by immunoblot analysis relative to control

For the compound `Cc1nc(N)c2ncn(C3CN(C(=O)c4ccn(CC5CCN(C6C=CCCCC6)CC5)c4)C3)c2n1` (configuration not stated), the IC50 in [1] was 23 nM; in [2] it was 6 nM. The Activity result with MCF7 [3] was “Non-Toxic”. Further, the inhibition result in series [4] is “Active”.
`Cc1nc(N)c2ncn(C3CN(C(=O)c4ccn(CC5CCN(C6CCCCCC6)CC5)c4)C3)c2n1`: the IC50 worked out at 4000 nM in [1] and 23 nM in [2].
`Cc1nc(N)c2ncn(C3CN(C(=O)c4cc(CC5CCN(C6CCCCCC6)CC5)n(C)n4)C3)c2n1`: the IC50 in series [1] was 3000 nM; in series [2], 32 nM.
As to `Cc1cc2c(ncn2C2(C)CN(C(=O)c3ccn(CC4CCN([C@@H]5C=CCCCC5)CC4)c3C)C2)c(N)n1`, the inhibition entry in series [5] was “inactive”.
For the compound `Cc1cc2c(ncn2C2(C)CN(C(=O)c3ccn(CC4CCN([C@H]5C=CCCCC5)CC4)c3)C2)c(N)n1`, the inhibition result in series [6], in series [9], in series [13] and in [18] was “Active” in each case. The logD in series [7] was 1.3. For the same compound, the IC50 in series [1] is 16 nM; in [8], 1300 to 3000 nM; in [10], 1300 to 3000 nM; in series [2], 8 nM; in [16], 1300 to 3000 nM; in [19] it was 1300 to 3000 nM. Besides, the IC50 in [21] is 1300 nM; in series [25] it was 1300 to 3000 nM. Further, the Ratio IC50 was 30 in the series listed under Homo sapiens [11], greater than 60 in the series listed under Homo sapiens [12], greater than 60 in the series filed under Homo sapiens [20] and 30 in the series listed under Homo sapiens [22]. Besides, the inhibition in series [14] amounted to 100%. The inhibition entry in [15] and in series [17] was “inactive” in each case. For the same compound, the Activity entry (in the series on MCF7 [23]; in series [24]; in the series on U2OS) was “Non-Toxic” in each case.
In the case of `Cc1nc(N)c2ncn(C3(C)CN(C(=O)c4cc(CN5CCN(C6CCCCCC6)CC5)n(C)n4)C3)c2n1`, the values for the IC50 in series [1] and in series [2] were 3000 nM and 58 nM, respectively.
As for `CC(C)N1CCN(Cc2cc(C(=O)N3CC(n4cnc5c(N)ncnc54)C3)nn2C)CC1`, the IC50 in [2] came out at 760 nM. Further, the inhibition in series [26] was greater than 50%.
Compound `CCN(C(=O)CO)[C@H]1CN(/C(=N\C#N)Nc2cccc(OC(F)F)c2)N=C1c1ccc(Cl)c(Cl)c1` displayed an inhibition in [27] of 100%.

The term IC50 denotes the midpoint of a concentration-inhibition curve. One may read the inhibition as the drop in the measured response relative to a control, in per cent. By logD is commonly meant the decadic logarithm of the distribution of all forms, ionised or not, between an organic phase and buffer at a given pH. Read a high logD as a more lipophilic compound.
